Where two headings read alike, the source gives them in different places.

This note sets out measurements from patent US10028992B2, “Methods of treating muscular dystrophy” (BOARD OF REGENTS OF THE NEVADA SYSTEM OF HIGHER EDUCATION …, priority 2012, dated 2018).

The subject of this assay is α7 integrin promoter. As to the kind of experiment: muscle cell-based assay: α7βgal+/− myoblasts/myotubes, LacZ reporter, β-galactosidase cleavage of FDG. Set-up: species or system mouse. In outline: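 Primary α7βgal+/− mouse myoblasts (LacZ knocked into α7 integrin exon 1, promoter retained), differentiated; promoter activity read as β-galactosidase conversion of non-fluorescent FDG to fluorescein. Hits followed by dose-response, western analysis and myostatin counterscreen.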

On to `Cc1cccc(Sc2nc(-c3ccccc3)ccc2C#N)c1` [drawing 390], for which the “Results in a α7+/− β-galactosidase assay, Myotubes, 0.5 uM” value (“Results … 0.5 uM” for short) (Myotubes, compound at 0.5 uM) was −0.06701. Moreover, the “Results in a α7+/− β-galactosidase assay, Myotubes, 1 uM” value (“Results … 1 uM” for short) (Myotubes, compound at 1 uM) is on record as −0.1813. In addition, where the note is “Myotubes, compound at 5 uM”, the “Results in a α7+/− β-galactosidase assay, Myotubes, 5 uM” value (shortened to “Results … Myotubes, 5 uM”) came out at 0.02472. For the same molecule, the “Results in a α7+/− β-galactosidase assay, Myotubes, 10 uM” value (from here on “Results … 10 uM”) (Myotubes, compound at 10 uM) was 0.2322. Besides, where the note is “Myotubes, compound at 20 uM”, the “Results in a α7+/− β-galactosidase assay, Myotubes, 20 uM” value (“Results … 20 uM” below) is −0.3206. Also, the “Results in a α7+/− β-galactosidase assay, Myotubes, 40 uM” value (shortened to “Results … 40 uM”) (Myotubes, compound at 40 uM) is on record as −0.2803.
Turning to `CCC(C)NC(=O)CSc1nnc(COc2ccc(Br)cc2)o1` (stereo not drawn) [drawing 391], the “Results … 0.5 uM” value (Myotubes, compound at 0.5 uM) is given as −0.04347. Moreover, the “Results … 1 uM” value (Myotubes, compound at 1 uM) is reported as −0.169. In addition, for the setting “Myotubes, compound at 5 uM”, the “Results … Myotubes, 5 uM” value was −0.2461. Further, the “Results … 10 uM” value (Myotubes, compound at 10 uM) is on record as −0.2857. For the same molecule, the “Results … 20 uM” value (Myotubes, compound at 20 uM) is −0.2196. Where the note is “Myotubes, compound at 40 uM”, the “Results … 40 uM” value is listed as −0.2848.
Take `Cc1ccc(N2C(=O)C3NN=C(C(=O)OCc4ccccc4)C3C2=O)cc1` (stereo not drawn) [drawing 392]: the “Results … 0.5 uM” value (Myotubes, compound at 0.5 uM) is reported as −0.03749. Also, the “Results … 1 uM” value (Myotubes, compound at 1 uM) is recorded as −0.0238. Moreover, under “Myotubes, compound at 5 uM”, the “Results … Myotubes, 5 uM” value is −0.168. The “Results … 10 uM” value (Myotubes, compound at 10 uM) is on record as −0.2332. The “Results … 20 uM” value (Myotubes, compound at 20 uM) turned out to be 0.00778. In addition, the “Results … 40 uM” value (Myotubes, compound at 40 uM) is on record as −0.01262.
With `Cc1cc([N+](=O)[O-])ccc1NC(=O)C(C)N1CCN(c2ccccn2)CC1` (stereo not drawn) [drawing 393], where the note is “Myotubes, compound at 0.5 uM”, the “Results … 0.5 uM” value stood at 0.0774. The “Results … 1 uM” value (Myotubes, compound at 1 uM) was determined as 0.107. Moreover, the “Results … Myotubes, 5 uM” value (Myotubes, compound at 5 uM) was −0.1042. The “Results … 10 uM” value (Myotubes, compound at 10 uM) is −0.1154. For the same molecule, the “Results … 20 uM” value (Myotubes, compound at 20 uM) is −0.297. The “Results … 40 uM” value (Myotubes, compound at 40 uM) is recorded as −0.3729.
`CCc1nc(/C=C2\C(=O)Nc3ccccc32)c[nH]1` [drawing 394]: the “Results … 0.5 uM” value (Myotubes, compound at 0.5 uM) was 0.2902. Besides, where the note is “Myotubes, compound at 1 uM”, the “Results … 1 uM” value amounted to 0.2582. The “Results … Myotubes, 5 uM” value (Myotubes, compound at 5 uM) was −0.08702. Moreover, for the setting “Myotubes, compound at 10 uM”, the “Results … 10 uM” value is reported as −0.09062. In addition, under “Myotubes, compound at 20 uM”, the “Results … 20 uM” value is reported as −0.0001. For the same molecule, the “Results … 40 uM” value (Myotubes, compound at 40 uM) is on record as −0.1577.
On to `O=C(Cn1nc(-c2ccc(Cl)cc2)ccc1=O)N1CCC2(CC1)OCCO2` [drawing 395], for which the “Results … 0.5 uM” value was determined as 0.1803; the “Results … 1 uM” value is listed as 0.1627; the “Results … Myotubes, 5 uM” value was −0.1502; the “Results … 10 uM” value was −0.1782. In addition, the “Results … 20 uM” value was −0.08792 and the “Results … 40 uM” value is recorded as −0.2213.
Regarding `CCOC(=O)C1(Cc2cccc(Cl)c2)CCCN(C(=O)CCSC)C1` (stereo not drawn) [drawing 396], the “Results … 0.5 uM” value (Myotubes, compound at 0.5 uM) is −0.05788. The “Results … 1 uM” value (Myotubes, compound at 1 uM) came out at 0.02732. The “Results … Myotubes, 5 uM” value (Myotubes, compound at 5 uM) was −0.3174. Besides, the “Results … 10 uM” value (Myotubes, compound at 10 uM) is given as −0.211. Moreover, the “Results … 20 uM” value (Myotubes, compound at 20 uM) is given as −0.1814. Moreover, the “Results … 40 uM” value (Myotubes, compound at 40 uM) was −0.4242.
With `Cc1cccc2c(/N=N/c3ccc(S(=O)(=O)Nc4ccc(Cl)cc4)cc3[N+](=O)[O-])c(O)[nH]c12` [drawing 397], the “Results … 0.5 uM” value (Myotubes, compound at 0.5 uM) is on record as −0.03979. Also, the “Results … 1 uM” value (Myotubes, compound at 1 uM) is given as −0.05535. For the same molecule, the “Results … Myotubes, 5 uM” value (Myotubes, compound at 5 uM) is given as −0.02922. Under “Myotubes, compound at 10 uM”, the “Results … 10 uM” value is recorded as 0.02994. In addition, the “Results … 20 uM” value (Myotubes, compound at 20 uM) is listed as −0.2047. In addition, the “Results … 40 uM” value (Myotubes, compound at 40 uM) is reported as −0.2727.
In the case of `CC(C)c1ccc(OC(=O)c2cccc(S(=O)(=O)N3CCN(C)CC3)c2)cc1` [drawing 398], where the note is “Myotubes, compound at 0.5 uM”, the “Results … 0.5 uM” value is −0.02436. Moreover, for the setting “Myotubes, compound at 1 uM”, the “Results … 1 uM” value is given as 0.01638. Moreover, the “Results … Myotubes, 5 uM” value (Myotubes, compound at 5 uM) is on record as −0.2473. The “Results … 10 uM” value (Myotubes, compound at 10 uM) amounted to 0.3054. For the same molecule, the “Results … 20 uM” value (Myotubes, compound at 20 uM) is −0.1863. Besides, the “Results … 40 uM” value (Myotubes, compound at 40 uM) was −0.2246.
On to `CC(C)c1ccc(NC(=O)CN2C(=O)c3ccccc3S2(=O)=O)cc1` [drawing 399], for which the “Results … 0.5 uM” value (Myotubes, compound at 0.5 uM) was −0.1815. Further, the “Results … 1 uM” value (Myotubes, compound at 1 uM) was −0.0433. Further, under “Myotubes, compound at 5 uM”, the “Results … Myotubes, 5 uM” value is 0.02954. Besides, the “Results … 10 uM” value (Myotubes, compound at 10 uM) was −0.2491. For the setting “Myotubes, compound at 20 uM”, the “Results … 20 uM” value was −0.1353. Further, the “Results … 40 uM” value (Myotubes, compound at 40 uM) was −0.1392.
With `NC(=O)c1sc2nc3c(cc2c1N)CCC3` [drawing 400], the “Results … 0.5 uM” value (Myotubes, compound at 0.5 uM) is reported as −0.1099. The “Results … 1 uM” value (Myotubes, compound at 1 uM) is −0.1307. The “Results … Myotubes, 5 uM” value (Myotubes, compound at 5 uM) was −0.1528. The “Results … 10 uM” value (Myotubes, compound at 10 uM) worked out at 0.5381. Under “Myotubes, compound at 20 uM”, the “Results … 20 uM” value worked out at 0.07998. Also, for the setting “Myotubes, compound at 40 uM”, the “Results … 40 uM” value was 0.08496.
